For series [1], the system named is COX-2. The arrangement: method as in earlier work. The note with it: human brain PET; cited from earlier work.
The target of series [2] is T1, COX-2 (Homo sapiens, UniProt P35354).
T1 sequence (P35354 18-604): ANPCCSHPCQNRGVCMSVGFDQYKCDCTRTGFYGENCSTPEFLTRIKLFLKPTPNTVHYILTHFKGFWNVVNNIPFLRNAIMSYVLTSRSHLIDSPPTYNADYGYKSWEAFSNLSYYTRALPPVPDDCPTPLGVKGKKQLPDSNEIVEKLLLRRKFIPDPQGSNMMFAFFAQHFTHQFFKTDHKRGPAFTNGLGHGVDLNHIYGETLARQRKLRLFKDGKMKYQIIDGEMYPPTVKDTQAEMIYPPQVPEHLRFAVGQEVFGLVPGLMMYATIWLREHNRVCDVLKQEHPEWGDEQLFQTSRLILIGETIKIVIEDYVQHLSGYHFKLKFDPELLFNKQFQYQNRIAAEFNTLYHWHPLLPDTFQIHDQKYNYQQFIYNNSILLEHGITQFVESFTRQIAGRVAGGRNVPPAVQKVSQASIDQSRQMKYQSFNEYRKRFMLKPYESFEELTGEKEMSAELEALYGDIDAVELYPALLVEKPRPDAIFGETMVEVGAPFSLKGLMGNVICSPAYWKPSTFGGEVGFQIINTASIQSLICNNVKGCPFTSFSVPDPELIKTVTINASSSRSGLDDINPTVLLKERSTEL
As to the kind of experiment: Lipophilic ligand efficiency (LLE).

Series [3] has as its target T1, COX-2. As to the kind of experiment: LCMS-based biochemical COX-2 assay (arachidonic acid to PGE2), short 2 min enzyme-inhibitor incubation. The conditions noted are these: COX2 IC50 (nM, 2 min), LCMS readout. The text has this: To anticipate fast washout pharmacokinetics in vivo, we utilized simple plasma and brain protein binding assays to maximize the unbound fraction. […] Previous COX-2 discovery relied on whole blood assays to measure COX-2 inhibition. Focusing on fast-binding inhibitors, we prioritized SAR derived from a rapid inhibition LCMS-based enzymatic assay.

Another series deals with P-gp (Homo sapiens, UniProt P08183). The series can be described thus: Efflux ratio (ER) / P-gp efflux. The series is classed as in vitro ADME. The conditions noted are these: for ER: efflux ratio.
A further series can be described thus: Permeability (Papp). The note with it: not told. The series is classed as in vitro ADME.
Series [4] in a line: Brain protein binding (fraction unbound in brain, Fub). The format is in vitro ADME. From the text: (§1) To select the best starting point for COX-2 radiotracer development, we extensively profiled a large set of known COX-2 selective inhibitors. Our primary focus was to identify a ligand with high binding affinity, COX-2 selectivity over COX-1, fast on-rate binding kinetics and improved free fraction in plasma to maximize the signal-to-noise ratio in PET imaging experiments. […] To anticipate fast washout pharmacokinetics in vivo, we utilized simple plasma and brain protein binding assays to maximize the unbound fraction.

Series [5] is described as follows: Plasma protein binding (fraction unbound in plasma, Fup). The format is in vitro ADME, mouse. The conditions noted are these: for Fup: as fraction, plasma protein binding; for Fup (mouse, %): mouse plasma.
Description: as §1

Series [6] is described as follows: Aqueous solubility in PBS. The conditions noted are these: aqueous buffer, read-out: Aq. Sol. (PBS). The series is classed as physicochemical.

Each structure is given as a SMILES string. ≈ marks a conversion by molar mass, not a printed value. Where “and” joins values, the source holds several entries; their conditions need not be identical. Identical values can stand only once.

P-gp, sequence (P08183 whole entry): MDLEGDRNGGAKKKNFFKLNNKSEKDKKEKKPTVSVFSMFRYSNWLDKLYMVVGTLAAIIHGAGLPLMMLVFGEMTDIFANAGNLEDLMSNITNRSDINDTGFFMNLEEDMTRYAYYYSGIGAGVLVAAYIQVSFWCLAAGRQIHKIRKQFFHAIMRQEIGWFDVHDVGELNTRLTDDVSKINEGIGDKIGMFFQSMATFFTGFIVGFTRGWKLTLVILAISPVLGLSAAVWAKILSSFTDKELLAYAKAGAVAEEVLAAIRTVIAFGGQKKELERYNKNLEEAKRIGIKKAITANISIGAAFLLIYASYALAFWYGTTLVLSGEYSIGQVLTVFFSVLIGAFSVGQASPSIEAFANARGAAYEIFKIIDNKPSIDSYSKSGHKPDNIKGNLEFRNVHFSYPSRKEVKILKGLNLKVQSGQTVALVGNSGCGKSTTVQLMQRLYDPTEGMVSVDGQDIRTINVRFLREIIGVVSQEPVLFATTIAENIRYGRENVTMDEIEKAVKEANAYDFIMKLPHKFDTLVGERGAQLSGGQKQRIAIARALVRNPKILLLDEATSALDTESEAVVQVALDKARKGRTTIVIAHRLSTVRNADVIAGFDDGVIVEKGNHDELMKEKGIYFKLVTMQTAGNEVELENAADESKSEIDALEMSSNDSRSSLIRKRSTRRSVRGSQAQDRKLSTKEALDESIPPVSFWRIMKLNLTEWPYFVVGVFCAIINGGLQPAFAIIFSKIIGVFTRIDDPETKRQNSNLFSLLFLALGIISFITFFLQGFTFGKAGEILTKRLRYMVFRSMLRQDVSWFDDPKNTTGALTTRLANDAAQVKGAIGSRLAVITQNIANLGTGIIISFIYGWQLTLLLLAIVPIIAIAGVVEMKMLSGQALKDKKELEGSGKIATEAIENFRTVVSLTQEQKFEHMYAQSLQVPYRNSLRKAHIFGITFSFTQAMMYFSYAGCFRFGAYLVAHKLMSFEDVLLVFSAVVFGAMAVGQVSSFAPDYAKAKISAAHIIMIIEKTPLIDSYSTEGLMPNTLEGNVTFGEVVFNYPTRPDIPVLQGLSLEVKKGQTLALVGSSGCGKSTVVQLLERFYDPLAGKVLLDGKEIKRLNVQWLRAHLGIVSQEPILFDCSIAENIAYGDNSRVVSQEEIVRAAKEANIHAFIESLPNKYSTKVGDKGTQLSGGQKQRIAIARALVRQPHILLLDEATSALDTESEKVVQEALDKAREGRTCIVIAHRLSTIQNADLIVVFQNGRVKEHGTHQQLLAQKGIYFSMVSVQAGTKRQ

On to `CS(=O)(=O)c1ccc(-c2nc(NCc3cccs3)cc(O[11CH3])n2)cc1` [[^11C]MC1], for which the “specific binding of the tracer (of the total uptake)” value with COX-2 [1] is 10%–20%.
As usually defined, the IC50 is the midpoint of a concentration-inhibition curve. The term Papp denotes the rate of passage across a membrane or cell layer, normalised by area and donor concentration. A lower Papp goes with poor permeation. `CS(=O)(=O)c1ccc(-c2cccc(NCc3ccoc3)n2)cc1` [BRD1158] displayed an LLE at COX-2 [2] of 4.78. For the same molecule, the IC50 against COX-2 [3] was 24.6 nM and 25 nM. For the same molecule, on P-gp, the ER is given as 0.9. Moreover, at P-gp (result in words), the P-gp efflux result was “no P-gp efflux”. In the series “Permeability (Papp)”, this molecule had a Papp of 50.8 ×10⁻⁶ cm/s. For the same molecule, in series [4], the “Fub (mouse, %)” value stood at 2.2%. The “fold improvement in plasma protein binding (PPB)” value in series [5] (BRD1158 compared to MC1) stood at 4 fold. Also, in series [5], the Fup is given as 0.091 and the “Fup (mouse, %)” value is listed as 9.1%.
`COc1cc(NCc2cccs2)nc(-c2ccc(S(C)(=O)=O)cc2)n1` [MC1, reference compound] yielded a Papp in the series “Permeability (Papp)” of 36.5 ×10⁻⁶ cm/s. Moreover, the “Fub (mouse, %)” value in series [4] is given as 0.75%. In series [6], the solubility is 3.4 µM (≈ 1.28 µg/mL). In series [5], the Fup is given as 0.024 and the “Fup (mouse, %)” value is recorded as 2.4%.
At COX-2 [2], `CS(=O)(=O)c1ccc(-c2cccc(OCc3cccs3)n2)cc1` [BRD2369] had an LLE of 4.8. In addition, the IC50 against COX-2 [3] was 3.4 nM and 3 nM. The ER at P-gp is given as 0.9. The molecule further registered a Papp in the series “Permeability (Papp)” of 33.7 ×10⁻⁶ cm/s. In addition, the “Fub (mouse, %)” value in series [4] was determined as 0%. Also, in series [5], the “Fup (mouse, %)” value is 0.4%.

Source of the values: article PMC11117721, “A Fast-Binding, Functionally Reversible, COX-2 Radiotracer for CNS PET Imaging” (ACS Central Science, 2024).
